# Results as given in patent US5698411A, “Method for determining activity of enzymes in metabolically active whole cells” (priority 1995, dated 1997).
# Experiments:
# Format in all cases: cell-based, human
# granulocytes [1] = experiment: peptidase activity in leukemia and non-leukemia patients, granulocytes (Table 6C); set-up: unit not given here
# Excerpt: (§1) Artificial intelligence was used to analyze data of cellular enzyme functions, and determine normal and disease states. Peptidases were used to distinguish leukemia from non-leukemia (output pattern). For input patterns lymphocyte and granulocyte cell types were used with aminopeptidases, cathepsins and dipeptidylpeptidase enzyme activities. In this Example, illustrated in Tables 6A-6C, three normals and three leukemia patients were used as known output patterns for the neural network to learn (in practice, the larger the learning set the more accurate unknown prediction will be). Unknowns were then presented to the learned algorithm as shown in the test case examples. Clinical diagnosis was confirmed by physicians. The trained neural network was able to correctly classify the leukemia from the non-leukemia.
# lymphocytes [2] = experiment: peptidase activity in leukemia and non-leukemia patients, lymphocytes (Table 6C); set-up: unit not given here
# Excerpt: as §1
# monocytes = experiment: aberrant enzyme activities in febrile children, monocytes (Table 7)
# lymphocytes [3] = experiment: aberrant enzyme activities in febrile children, lymphocytes (Table 7)
# granulocytes [4] = experiment: aberrant enzyme activities in febrile children, granulocytes (Table 7)
compound,measurement,setting,value
"NC(=O)CC[C@H](N)C(=O)N[C@@H](CO)C(=O)Nc1ccc2c(c1)Oc1cc(NC(=O)[C@H](CO)NC(=O)[C@@H](N)CCC(N)=O)ccc1C21OC(=O)c2ccccc21 [QS, (H-L-Gln--Ser)2 Rho 110 .2TFA]","enzyme activity, Grans",granulocytes [1]; J4 11/21/91 acute leuk.,0.22
same,"enzyme activity, Grans",granulocytes [1]; J4 12/2/91 A L,0.44
same,"enzyme activity, Grans",granulocytes [1]; J4 12/3/91 acute leuk.,0.19
same,"enzyme activity, Grans",granulocytes [1]; J22 12/2/91 A M L,0.10
same,"enzyme activity, Grans",granulocytes [1]; J22 12/9/91 A M L,0.24
same,"enzyme activity, Grans",granulocytes [1]; N191 normal,0.19
same,"enzyme activity, Grans",granulocytes [1]; N192 normal,0.15
same,"enzyme activity, Grans",granulocytes [1]; N193 normal,0.14
same,"enzyme activity, Grans",granulocytes [1]; N194 normal,0.07
same,"enzyme activity, Grans",granulocytes [1]; N195 normal,0.21
same,"enzyme activity, Grans",granulocytes [1]; N197 normal,0.24
same,"enzyme activity, Grans",granulocytes [1]; N199 normal,0.05
same,"enzyme activity, Grans",granulocytes [1]; N200 normal,0.06
same,"enzyme activity, Grans",granulocytes [1]; N201 normal,0.09
same,"enzyme activity, Grans",granulocytes [1]; N202 normal,0.08
same,"enzyme activity, Grans",granulocytes [1]; N206 normal,0.27
same,"enzyme activity, Grans",granulocytes [1]; P68 tachycardia,0.33
same,"enzyme activity, Grans",granulocytes [1]; P69 pancreatic CA,0.37
same,"enzyme activity, Grans",granulocytes [1]; P70 cirrhosis/hemobilia,0.19
same,"enzyme activity, Grans",granulocytes [1]; P71 ac. pyelonephritis,0.51
same,"enzyme activity, Lymphs",lymphocytes [2]; J4 11/21/91 acute leuk.,0.05
same,"enzyme activity, Lymphs",lymphocytes [2]; J4 12/2/91 A L,0.01
same,"enzyme activity, Lymphs",lymphocytes [2]; J4 12/3/91 acute leuk.,0.06
same,"enzyme activity, Lymphs",lymphocytes [2]; J5 11/27/91 A M L,0.07
same,"enzyme activity, Lymphs",lymphocytes [2]; J19 11/27/91 C L L,0.06
same,"enzyme activity, Lymphs",lymphocytes [2]; J22 12/2/91 A M L,0.02
same,"enzyme activity, Lymphs",lymphocytes [2]; J22 12/9/91 A M L,0.02
same,"enzyme activity, Lymphs",lymphocytes [2]; N191 normal,0.02
same,"enzyme activity, Lymphs",lymphocytes [2]; N192 normal,0.03
same,"enzyme activity, Lymphs",lymphocytes [2]; N193 normal,0.03
same,"enzyme activity, Lymphs",lymphocytes [2]; N194 normal,0.02
same,"enzyme activity, Lymphs",lymphocytes [2]; N195 normal,0.04
same,"enzyme activity, Lymphs",lymphocytes [2]; N197 normal,0.06
same,"enzyme activity, Lymphs",lymphocytes [2]; N199 normal,0.02
same,"enzyme activity, Lymphs",lymphocytes [2]; N200 normal,0.01
same,"enzyme activity, Lymphs",lymphocytes [2]; N201 normal,0.02
same,"enzyme activity, Lymphs",lymphocytes [2]; N202 normal,0.01
same,"enzyme activity, Lymphs",lymphocytes [2]; N206 normal,0.04
same,"enzyme activity, Lymphs",lymphocytes [2]; P68 tachycardia,0.02
same,"enzyme activity, Lymphs",lymphocytes [2]; P69 pancreatic CA,0.31
same,"enzyme activity, Lymphs",lymphocytes [2]; P70 cirrhosis/hemobilia,0.04
same,"enzyme activity, Lymphs",lymphocytes [2]; P71 ac. pyelonephritis,0.05
same,"aberrant enzyme activity, MONOS",monocytes; P92 Adenitis,.smallcircle.
same,"aberrant enzyme activity, MONOS",monocytes; P97 Pyelonephritis,.smallcircle.
same,"aberrant enzyme activity, LYMPHS",lymphocytes [3]; P92 Adenitis,.smallcircle.
same,"aberrant enzyme activity, LYMPHS",lymphocytes [3]; P97 Pyelonephritis,.smallcircle.
same,"aberrant enzyme activity, LYMPHS",lymphocytes [3]; P103 Viral Syndrome,.smallcircle.
same,"aberrant enzyme activity, GRANS",granulocytes [4]; P97 Pyelonephritis,.smallcircle.
"C[C@@H](O)[C@H](N)C(=O)N1CCC[C@H]1C(=O)Nc1ccc2c(c1)Oc1cc(NC(=O)[C@@H]3CCCN3C(=O)[C@@H](N)[C@@H](C)O)ccc1C21OC(=O)c2ccccc21 [TP, (H-L-Thr--Pro)2 Rho 110 .2TFA]","enzyme activity, Grans",granulocytes [1]; J4 11/21/91 acute leuk.,5.96
same,"enzyme activity, Grans",granulocytes [1]; J4 12/2/91 A L,2.59
same,"enzyme activity, Grans",granulocytes [1]; J4 12/3/91 acute leuk.,1.93
same,"enzyme activity, Grans",granulocytes [1]; J5 11/27/91 A M L,2.72
same,"enzyme activity, Grans",granulocytes [1]; J19 11/27/91 C L L,2.95
same,"enzyme activity, Grans",granulocytes [1]; J22 12/2/91 A M L,2.33
same,"enzyme activity, Grans",granulocytes [1]; J22 12/9/91 A M L,2.51
same,"enzyme activity, Grans",granulocytes [1]; N191 normal,4.73
same,"enzyme activity, Grans",granulocytes [1]; N192 normal,4.62
same,"enzyme activity, Grans",granulocytes [1]; N193 normal,4.96
same,"enzyme activity, Grans",granulocytes [1]; N194 normal,3.77
same,"enzyme activity, Grans",granulocytes [1]; N195 normal,3.74
same,"enzyme activity, Grans",granulocytes [1]; N197 normal,3.82
same,"enzyme activity, Grans",granulocytes [1]; N199 normal,3.71
same,"enzyme activity, Grans",granulocytes [1]; N200 normal,4.69
same,"enzyme activity, Grans",granulocytes [1]; N201 normal,4.23
same,"enzyme activity, Grans",granulocytes [1]; N202 normal,4.44
same,"enzyme activity, Grans",granulocytes [1]; N206 normal,5.98
same,"enzyme activity, Grans",granulocytes [1]; P68 tachycardia,5.63
same,"enzyme activity, Grans",granulocytes [1]; P69 pancreatic CA,4.21
same,"enzyme activity, Grans",granulocytes [1]; P70 cirrhosis/hemobilia,4.02
same,"enzyme activity, Grans",granulocytes [1]; P71 ac. pyelonephritis,4.37
same,"enzyme activity, Lymphs",lymphocytes [2]; J4 11/21/91 acute leuk.,2.30
same,"enzyme activity, Lymphs",lymphocytes [2]; J4 12/2/91 A L,1.46
same,"enzyme activity, Lymphs",lymphocytes [2]; J4 12/3/91 acute leuk.,1.18
same,"enzyme activity, Lymphs",lymphocytes [2]; J5 11/27/91 A M L,1.32
same,"enzyme activity, Lymphs",lymphocytes [2]; J19 11/27/91 C L L,0.50
same,"enzyme activity, Lymphs",lymphocytes [2]; J22 12/2/91 A M L,0.99
same,"enzyme activity, Lymphs",lymphocytes [2]; J22 12/9/91 A M L,1.02
same,"enzyme activity, Lymphs",lymphocytes [2]; N191 normal,2.14
same,"enzyme activity, Lymphs",lymphocytes [2]; N192 normal,2.12
same,"enzyme activity, Lymphs",lymphocytes [2]; N193 normal,2.33
same,"enzyme activity, Lymphs",lymphocytes [2]; N194 normal,1.82
same,"enzyme activity, Lymphs",lymphocytes [2]; N195 normal,1.90
same,"enzyme activity, Lymphs",lymphocytes [2]; N197 normal,1.96
same,"enzyme activity, Lymphs",lymphocytes [2]; N199 normal,1.86
same,"enzyme activity, Lymphs",lymphocytes [2]; N200 normal,2.39
same,"enzyme activity, Lymphs",lymphocytes [2]; N201 normal,1.88
same,"enzyme activity, Lymphs",lymphocytes [2]; N202 normal,2.49
same,"enzyme activity, Lymphs",lymphocytes [2]; N206 normal,2.89
same,"enzyme activity, Lymphs",lymphocytes [2]; P68 tachycardia,1.90
same,"enzyme activity, Lymphs",lymphocytes [2]; P69 pancreatic CA,2.26
same,"enzyme activity, Lymphs",lymphocytes [2]; P70 cirrhosis/hemobilia,1.89
same,"enzyme activity, Lymphs",lymphocytes [2]; P71 ac. pyelonephritis,1.86
dichlorofluorescein [reference compound],"aberrant enzyme activity, MONOS",monocytes; P88 Enteritis,.smallcircle.
same,"aberrant enzyme activity, MONOS",monocytes; P89 Viral Stomatitis,+ (>0.25 Increase over normal range)
same,"aberrant enzyme activity, MONOS",monocytes; P92 Adenitis,+ (>0.25 Increase over normal range)
same,"aberrant enzyme activity, MONOS",monocytes; P95 Viral Syndrome,+ (>0.25 Increase over normal range)
same,"aberrant enzyme activity, MONOS",monocytes; P96 Viral Syndrome,+ (>0.25 Increase over normal range)
same,"aberrant enzyme activity, MONOS",monocytes; P97 Pyelonephritis,+ (>0.25 Increase over normal range)
same,"aberrant enzyme activity, MONOS",monocytes; P99 Viral Syndrome,.smallcircle.
same,"aberrant enzyme activity, MONOS",monocytes; P101 Fever -- Unknown Origin,+ (>0.25 Increase over normal range)
same,"aberrant enzyme activity, MONOS",monocytes; P102 UTI,.smallcircle.
same,"aberrant enzyme activity, MONOS",monocytes; P103 Viral Syndrome,+ (>0.25 Increase over normal range)
same,"aberrant enzyme activity, LYMPHS",lymphocytes [3]; P88 Enteritis,.smallcircle.
same,"aberrant enzyme activity, LYMPHS",lymphocytes [3]; P89 Viral Stomatitis,+ (>0.25 Increase over normal range)
same,"aberrant enzyme activity, LYMPHS",lymphocytes [3]; P92 Adenitis,+ (>0.25 Increase over normal range)
same,"aberrant enzyme activity, LYMPHS",lymphocytes [3]; P95 Viral Syndrome,+ (>0.25 Increase over normal range)
same,"aberrant enzyme activity, LYMPHS",lymphocytes [3]; P96 Viral Syndrome,+ (>0.25 Increase over normal range)
same,"aberrant enzyme activity, LYMPHS",lymphocytes [3]; P97 Pyelonephritis,+ (>0.25 Increase over normal range)
same,"aberrant enzyme activity, LYMPHS",lymphocytes [3]; P99 Viral Syndrome,.smallcircle.
same,"aberrant enzyme activity, LYMPHS",lymphocytes [3]; P101 Fever -- Unknown Origin,+ (>0.25 Increase over normal range)
same,"aberrant enzyme activity, LYMPHS",lymphocytes [3]; P102 UTI,.smallcircle.
same,"aberrant enzyme activity, LYMPHS",lymphocytes [3]; P103 Viral Syndrome,+ (>0.25 Increase over normal range)
same,"aberrant enzyme activity, GRANS",granulocytes [4]; P88 Enteritis,.smallcircle.
same,"aberrant enzyme activity, GRANS",granulocytes [4]; P89 Viral Stomatitis,+ (>0.25 Increase over normal range)
same,"aberrant enzyme activity, GRANS",granulocytes [4]; P92 Adenitis,+ (>0.25 Increase over normal range)
same,"aberrant enzyme activity, GRANS",granulocytes [4]; P95 Viral Syndrome,+ (>0.25 Increase over normal range)
same,"aberrant enzyme activity, GRANS",granulocytes [4]; P96 Viral Syndrome,+ (>0.25 Increase over normal range)
same,"aberrant enzyme activity, GRANS",granulocytes [4]; P97 Pyelonephritis,+ (>0.25 Increase over normal range)
same,"aberrant enzyme activity, GRANS",granulocytes [4]; P99 Viral Syndrome,.smallcircle.
same,"aberrant enzyme activity, GRANS",granulocytes [4]; P101 Fever -- Unknown Origin,+ (>0.25 Increase over normal range)
same,"aberrant enzyme activity, GRANS",granulocytes [4]; P102 UTI,.smallcircle.
same,"aberrant enzyme activity, GRANS",granulocytes [4]; P103 Viral Syndrome,+ (>0.25 Increase over normal range)
